Experimental findings from patent publication US11980613B2, “Methods for reversing HIV latency using BAF complex modulating compounds” (priority 2018, dated 2024) are described below.

Data set [1] deals with Bmi1-luciferase reporter cell line. As to the kind of experiment: Bmi1-luciferase reporter assay (screen for inhibitors of BAF-mediated transcriptional repression). It counts as cell-based, mouse. The note with it: for activity in the Bmi1 luciferase reporter assays: grading in words. As to the method:
Low passage mESCs from 129 mice (20 million, p10) were electroporated with 40 μg of a linearized construct consisting of 2 kb homology upstream of the Bmi1 locus, firefly luciferase at exon 1 of Bmi1 followed by loxP neo and a 6 kb 3′ homology arm with thymidine kinase outside the homology arms. The cells were plated on 10 gelatin treated plates (60 mm) of irradiated neo resistant MEFs and selected with G418 and ganciclovir for 5 days. 384 colonies were selected, trypsinized and replated in gelatin treated 24-well plates for expansion. The cells were split and DNA was isolated for digestions with EcoRI or BamHI. We confirmed the successful homologous recombination in 7 out 384 colonies using Southern blot analysis at both the 5′ (EcoRI) and 3′ (BamHI) end (see Table S2 of Marian et al., “Small Molecule Targeting of Specific BAF (mSWI/SNF) Complexes for HIV Latency Reversal,” Cell Chem. Biol. (Dec. 20, 2018) 25: 1443-1445). We deleted the neomycin cassette using transfected Cre recombinase and confirmed the excision at all clones using a second round of Southern blot analysis at the 3′ end (BamHI).
(§1) 3. Compound Treatment: 10,000 cells in 30 μL ESC media were plated in white 384 well CellBind plates. The cells were cultured in a 37° C., 5% CO2 incubator for 24 h and 100 nL/well of 0.75 mM of positive control (Pubchem SID: 85814977) or 100 nL/well of 3.75 mM compound library (primary screen) was added via pin transfer into plates. There was no effect on assay readout at DMSO concentrations up to 0.5%. The cells were cultured in a 37° C., 5% CO2 incubator for 24 h for luciferase reporter assay and 18 h for qRT-PCR assay. 4. Luciferase assay: (PubChem AID 602393 primary, PubChem AID 651717 confirmatory.) The assay plates were removed from the incubator and equilibrates for 10 minutes to room temperature. Promega SteadyGlo® solution (10 μL/well) was added to each well of the assay plates. The assay plates were mixed at 1000 rpm for 15 seconds and then incubated for 10 minutes at room temperature. The luciferase levels were read on a Perkin Elmer Envision in Ultra Sensitive Luminescence mode. Signals remained stable up to 2 hours. 5. EqRT-PCR secondary screen (PubChem AID 743180, 743177, 743176) The qRTPCR screen was performed as published^54. In brief, 5,000 ES cells were plated on gelatin-coated 384-well tissue culture plates and cultured in a 37C, 5% CO2 incubator. 24 h later, hit compounds in 100 nL DMSO were treated at eight different doses. 18 h after compound treatment cells were washed two times with 100 μL PBS and all excess PBS was removed by centrifuging the plates upside down at 1000 rpm. The Ambion® Cells-to-Ct kit was used to generate cDNA. In brief, the cells were lysed in the plate in 10 μL lysis buffer containing DNase for 10 minutes and quenched with 1 μL lysis stop buffer. The lysate (2 μL) was added to 5 μL RT reaction buffer (2×), 2.5 μL nuclease-free water and 0.5 μL Reverse transcriptase (20×) and incubated at 37° C. for 60 minutes and 95° C. for 1 minute to generate 10 μL of cDNA. cDNA (1 μL) was used in each 5 μL qPCR reaction with Roche master mix and TaqMan probes (Applied Biosystems) for Bmi1-FAM (Mm00776122_gH), Ring1a-FAM (Mm01278940_m1/4331182), or Fgf4-FAM (Mm00438916_g1/4351372) alongside actin-VIC (4352341E) for a loading control. The qPCR was run accordingly: 95° C. for 10 minutes Then 55 cycles of: 95° C. for 10 seconds followed by 60° C. for 30 seconds. The fold increase in transcription was calculated using the ΔΔCT method^84. 6. Viability Assays (PubChem AID: 743188, 743189, 743190, 1053139, 1053140, 1053141)
On the technique in general: Reporter assays use an easily measured gene product as a stand-in for the process of interest.

The test system of data set [2] is BAF target genes (Bmi1, Ring1, Fgf4). As to the kind of experiment: qRT-PCR of BAF target genes in ESCs. It counts as cell-based, mouse. The note with it: 30 μM of compound, 18 h. On the procedure: as §1, with “The lysate (2 μL) was added to 5 μL RT reaction buffer (2×), 2.5 μL nuclease-free water and 0.5 μL Reverse transcriptase (20×) and incubated at 37° C. for 60 minutes and 95° C. for 1 minute to generate 10 μL of cDNA. cDNA (1 μL) was used in each 5 μL qPCR reaction with Roche master mix and TaqMan probes (Applied Biosystems) for Bmi1-FAM (Mm00776122_gH), Ring1a-FAM (Mm01278940_m1/4331182), or Fgf4-FAM (Mm00438916_g1/4351372) alongside actin-VIC (4352341E) for a loading control. The qPCR was run accordingly: 95° C. for 10 minutes Then 55 cycles of: 95° C. for 10 seconds followed by 60° C. for 30 seconds.” left out, “6. Viability Assays (PubChem AID: 743188, 743189, 743190, 1053139, 1053140, 1053141)” left out
(Quantitative PCR measures a nucleic acid by following its amplification.)

In a further data set the test system is wild type ESCs. As to the kind of experiment: Viability in wild type ESCs (CellTiter-Glo). Particulars: up to 30 μM; 72 h. It is filed as cell-based, mouse. On the procedure:
FIG. 2: 12-membered macrolactams are inhibitors of BAF-mediated transcription. A. The EC50 was measured for the best screen hit BRD-K98645985 after 24 h compound treatment with the Bmi1-luciferase reporter cell line. Each concentration was dosed in triplicate. B. The fold change of the transcription of three BAF target genes was calculated using qRT-PCR after 18 h BRD-K98645985 treatment (30 μM) or Brg1 knockdown compared to untreated cells. C. Viability measurements in wild type ESCs were performed after 72 h of compound or DMSO treatment using CellTiter-Glo®. D. The structure activity relationship of the eight stereoisomers of BRD-K98645985 based on initial luciferase induction from the primary screen. E. The structure activity relationship of the 3618 macrolactam library members based on initial luciferase induction from the primary screen.
Cell culture: HepG2, A549 and HEK293 cells were propagated to 95% confluence in DMEM containing 10% FBS 1% Pen/Strep, 1% L-Glutamine. Cells were plated at 2000 per well in 40 μL media in white tissue culture treated 384-well plates and incubated at 5% CO2; 95% humidity, 37° C. for 24 hours. […] The plates were read on Perkin-Elmer EnVision with standard luminescence settings for 0.1 sec per well.
(In general: In ATP-based viability assays light output follows the ATP content of the culture.)

The next data set deals with HepG2 cells. Put plainly: Viability assay HepG2. Particulars: 72 h. It is filed as cell-based. On the procedure:
(§2) Cell culture: HepG2, A549 and HEK293 cells were propagated to 95% confluence in DMEM containing 10% FBS 1% Pen/Strep, 1% L-Glutamine. Cells were plated at 2000 per well in 40 μL media in white tissue culture treated 384-well plates and incubated at 5% CO2; 95% humidity, 37° C. for 24 hours. Compound (100 nL) was added to wells using a pin tool (CyBi Well) alongside 100 nL cytotoxic compounds, mitoxantrone (final concentration of 10 μM) as a positive control. The cells were incubated for 72 hours at 37° C., 95% humidity 5% CO2. Plates were removed from the incubator, equilibrated for 15 minutes to room temperature; and 20 μL 50% Promega CellTiterGlo (diluted 1:1 with PBS, pH 7.4) was added. The plates were read on Perkin-Elmer EnVision with standard luminescence settings for 0.1 sec per well.

In another data set the test system is HEK293T cells. As to the kind of experiment: Viability assay HEK293T. It counts as cell-based. Particulars: 72 h. As to the method:
as §2

For another data set, the system named is A549 cells. As to the kind of experiment: Viability assay A549. Particulars: 72 h. It counts as cell-based. On the procedure:
as §2

The test system of data set [3] is latent provirus in J-Lat T-cell line. As to the kind of experiment: Cell line models of HIV-1 latency (J-Lat, GFP). It counts as cell-based. The note with it: higher concentrations than in primary cells; 48 h. On the procedure:
[drawing 27] i. BRD-K25923209: To Macrocycle 2141-039b (0.804 g, 1.550 mmol) dissolved in MeOH (Volume: 15.50 ml) was added tin(II) chloride dihydrate (3.50 g, 15.50 mmol). […] Upon completion, the reaction mixture was concentrated and the resulting residue was dissolved in EtOAc and washed with 2 M aq. KOH (2×). The combined aqueous layers were washed with EtOAc (4×). The resulting organic layers were washed with brine, saturated aqueous NaHCO3, water, and brine, dried over MgSO4, filtered, and concentrated. […] BRD-K80443127: A screwtop vial was charged with aniline (BRD-K25923209) (43.3 mg, 0.089 mmol) and CH2Cl2 (Volume: 886 μl, Density: 1.325 g/ml). Isopropyl chloroformate (115 μl, 0.115 mmol) and DIEA (46.4 μl, 0.266 mmol) were added dropwise and reaction stirred under ambient conditions for 1 h. […] BRD-K04244835: A 2.5 mL microwave vial was charged with aniline (BRD-K25923209) (40 mg, 0.082 mmol) and EtOH (Volume: 819 μl, Density: 0.81 g/ml). Squaramide (CRE-III-001) (20.75 mg, 0.098 mmol), DIEA (42.8 μl, 0.246 mmol), and DMAP (2.000 mg, 0.016 mmol) were added in sequence and the vial was sealed. […] 9. […] 10. […] 11.

Data set [4] deals with latent HIV-1 infected T cells. As to the kind of experiment: HIV latency reversal activity of the thiophene hit. It is filed as cell-based.
Data set [5] relates to latent HIV-1 in CD4+ T cells from c-ART treated HIV-1 infected patients. Put plainly: HIV latency reversal from patient samples (cell associated HIV Pol mRNA). It counts as cell-based, human. Particulars: Patient 1 (one patient); single agents; 24 hours. On the procedure:
23. HIV latency reversal from patient samples: All patients were older than 18 years, c-ART treated for at least 3 years, and their viral loads were below 50 copies/ml for more than 12 months with no blips in the past two years. CD4+ T cells from aviremic HIV+ patients were isolated as described previously^55 with minor modifications. Briefly, frozen PBMCs were cultured in RPMI medium over-night to recover. Then next day CD4+ T cells were isolated twice (enriched CD4+ T cells were subjected to a second round of CD4+ T cell enrichment) and left for 6 hrs to recover. Three million cells were treated with DMSO, 10 μM BRD-K80443127, 200 nM Prostratin, 10 μM BRD-K80443127 and 200 nM prostratin, and αCD3/CD28 magnetic beads (at cell:bead ration 1:1) as a positive control in triplicate. After 24 hours cells were lysed in TRIreagent (Sigma), total RNA was isolated with Total RNA Zol-Out (A&A Biotechnology) kit and cDNA was synthetized using random primers and Superscript II Reverse Transcriptase (Life Technologies). Detection of cellular associated pol RNA was performed as described previously (Pol: For […] (SEQ ID NO:15), Rev-[…] (SEQ ID NO: 16))^55. This study was conducted in accordance with the ethical principles of the Declaration of Helsinki. HIV-1 infected patient volunteers were informed and provided signed consent to participate in the study. The study protocol was approved by The Netherlands Medical Ethics Committee (MEC-2012-583). cDNA generated from control and 10 μM BRD-K80443127 treated samples was used to assess expression of BAF target genes biomarker genes-p21 and C-MYC.

On to `CCC(CC)Nc1c(Nc2ccc3c(c2)C(=O)N(C)C[C@H](OC)[C@@H](C)CN(Cc2ccc(-c4ccccn4)cc2)[C@@H](C)CO3)c(=O)c1=O` [BRD-K04244835], for which, in data set [1], the “activity in the Bmi1 luciferase reporter assays” value is given as “low/no activity”.

Regarding `CO[C@H]1CN(C)C(=O)c2cc(NC(=O)NC(C)C)ccc2OC[C@H](C)N(Cc2ccccc2)C[C@@H]1C` [BRD-K13648511], the “activity in the Bmi1 luciferase reporter assays” value in [1] was “low/no activity”.

Regarding `CO[C@H]1CN(C)C(=O)c2cc(NC(=O)NC(C)C)ccc2OC[C@H](C)N(Cc2ccc(-c3cccnc3)cc2)C[C@@H]1C` [BRD-K17257309], the “activity in the Bmi1 luciferase reporter assays” value in [1] is listed as “moderate activity”.

As for `CO[C@H]1CN(C)C(=O)c2cc(N)ccc2OC[C@H](C)N(Cc2ccc(-c3ccccn3)cc2)C[C@@H]1C` [BRD-K25923209], the “activity in the Bmi1 luciferase reporter assays” value in data set [1] is reported as “high activity”.

Usually EC50 stands for the concentration giving half of the maximal effect. As to `CO[C@H]1CN(C)C(=O)c2cc(NC(=O)NC(C)C)ccc2OC[C@H](C)N(Cc2ccc(-c3ccccn3)cc2)C[C@@H]1C` [BRD-K98645985], the “activity in the Bmi1 luciferase reporter assays” value in [1] is listed as “high activity”. Further, the EC50 in data set [1] (re-evaluation of hit, 24 h compound treatment) is roughly 2370 nM. In data set [2], the “fold decrease in Fgf4” value came out at 3.3 fold, the “fold increase in Bmi1” value is 5 fold and the “fold increase in Ring1” value is given as 2.6 fold. The “toxicity to ESCs” value with wild type ESCs was “no toxicity”. Further, in the data set with HepG2 cells, the “toxicity to HepG2 cells” value is reported as “no toxicity”. Further, the “toxicity to HEK293T cells” value in the data set with HEK293T cells is recorded as “no toxicity”. The “toxicity to A549 cells” value in the data set with A549 cells is “no toxicity”. For the same compound, the “latency reversal (GFP)” value in data set [3] is given as “concentration dependent latency reversal”.

As for `C=CCNc1nc(NCc2cccc(OC)c2)c2sc(-c3ccccc3)cc2n1` [MLS003122856], the “HIV latency reversal activity” value in [4] is listed as “moderate”.

Consider `CC(=O)O[C@@]12C[C@@H](C)[C@@]3(O)[C@@H](C=C(CO)C[C@]4(O)C(=O)C(C)=C[C@@H]34)[C@@H]1C2(C)C` [prostratin, reference compound], for which the “cell associated HIV mRNA (Pol), response” value in [5] is reported as “responded”.
